The values below come from patent US5216001A, “Indole derivatives” (H. Lunbeck A/S, priority 1990, dated 1993).

One test concerns the target T1, 5-HT2 (Rattus norvegicus, UniProt P14842).
T1 construct: Four rats, male Wistar (Mol:Wist) SPF rats weighing 170-240 g; from tissue; host or cells: living male Wistar (Mol:Wist) SPF rats (in vivo, endogenous receptor)
Description: quipazine inhibition (quipazine-induced head twitches in rats). It counts as in vivo. Here is the method: Quipazine is a 5-HT2 agonist, which induces head twitches in rats. The test is a test for 5-HT2 -antagonistic effect testing the ability to inhibit head twitches. The method and test results for some reference substances are published by Arnt et al. (Drug Development Research, 16, 59-70, 1989).
Test substance is injected s.c. 2 hrs before or p.o. 24 hrs before quipazine administration (6.8 mg/kg, s.c., dimaleate). Four rats, male Wistar (Mol:Wist) SPF rats weighing 170-240 g, are used at each dose level. A control group is included each test day. By repeated testing (2, 24 hrs) the control group is the same, however. After quipazine administration the rats are individually placed in the observation cages and head twitches are counted in an observation period of 30-40 min. after injection of quipazine.
Total number of head twitches in each group is calculated and the result for each dose is expressed as per cent of the response in the control group. ED50 values are calculated by log-probit analysis. The test must be repeated if the average number of head twitches is lower than 9 in the control group.

A further test has as its target T2, dopamine D-2 receptors (Rattus norvegicus, UniProt P61169).
T2 construct: striatal tissue is dissected and weighed; from tissue; host or cells: corpus striatum membranes of male Wistar rats
The experiment in a line: inhibition of 3H-spiperone binding to dopamine D-2 receptors in rat corpus striatum in vitro. To be noted: 3H-spiperone 0.5 nM, rat corpus striatum membranes, in vitro; read-out: Binding IC50, 3H Spi. The essentials:
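Rat striatal membranes from male Wistar rats in 50 mM K-phosphate pH 7.4 incubated 10 min at 37 °C with 0.5 nM ³H-spiperone and five drug concentrations over 3 decades. Bound radioactivity collected by filtration and counted by scintillation; nonspecific binding defined with 10 μM 6,7-ADTN.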

Test [1] deals with T3, serotonin S2 (5-HT2) receptors (Rattus norvegicus, UniProt P14842).
T3 construct: cortical tissue is dissected and weighed; from tissue; host or cells: cerebral cortex membranes of male Wistar (Mol:Wist) rats
T3 sequence (P14842 whole entry): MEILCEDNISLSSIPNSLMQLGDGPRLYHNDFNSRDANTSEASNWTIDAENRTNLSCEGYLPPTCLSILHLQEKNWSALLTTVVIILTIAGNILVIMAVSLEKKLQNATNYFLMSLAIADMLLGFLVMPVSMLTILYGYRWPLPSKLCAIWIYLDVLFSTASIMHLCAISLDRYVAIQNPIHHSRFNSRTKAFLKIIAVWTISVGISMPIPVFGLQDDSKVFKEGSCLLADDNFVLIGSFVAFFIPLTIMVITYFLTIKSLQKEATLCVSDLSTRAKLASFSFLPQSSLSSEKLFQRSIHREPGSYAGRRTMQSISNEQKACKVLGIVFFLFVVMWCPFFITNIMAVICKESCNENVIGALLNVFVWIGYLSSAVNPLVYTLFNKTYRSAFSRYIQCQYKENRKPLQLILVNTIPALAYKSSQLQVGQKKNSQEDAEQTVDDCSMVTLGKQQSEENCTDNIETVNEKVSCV
Description: inhibition of 3H-ketanserin binding to serotonin S2 (5-HT2) receptors in rat cortex in vitro. To be noted: 3H-ketanserin 0.5 nM, rat cortex membranes, read-out: Binding IC50, 3H Ket.

Where [2] appears, read: po, 24 h, read-out: Quipazine inhibition ED50, 24h (po).
Setting [3] is: sc, 2 h, read-out: Quipazine inhibition ED50, 2h (sc).

Read-outs that look alike come from different tables or passages of the source.

T2 sequence (P61169 whole entry): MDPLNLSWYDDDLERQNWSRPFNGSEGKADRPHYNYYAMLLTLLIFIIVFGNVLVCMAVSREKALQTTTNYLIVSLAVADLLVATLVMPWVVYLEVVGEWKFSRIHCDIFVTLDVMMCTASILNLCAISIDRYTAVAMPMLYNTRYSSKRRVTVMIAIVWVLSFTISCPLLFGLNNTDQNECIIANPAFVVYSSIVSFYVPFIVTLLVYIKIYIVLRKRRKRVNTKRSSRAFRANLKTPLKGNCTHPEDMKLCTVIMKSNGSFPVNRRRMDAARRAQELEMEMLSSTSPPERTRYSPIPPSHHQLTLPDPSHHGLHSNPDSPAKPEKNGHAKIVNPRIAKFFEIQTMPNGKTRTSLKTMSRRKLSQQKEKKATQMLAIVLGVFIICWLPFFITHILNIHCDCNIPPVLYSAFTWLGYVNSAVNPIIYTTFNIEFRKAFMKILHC
T1 sequence (P14842 whole entry): as the sequence (P14842 whole entry) above

As usually defined, the ED50 is the dose at which the effect has come halfway, by size or by number of responders. For orientation: IC50 means the concentration that inhibits the measured activity by half. As to `CC(C)N1CCN(CCN2CCC(c3cn(-c4ccc(F)cc4)c4cc(Cl)ccc34)CC2)C1=O` [Compound 4a, 6-chloro-1-(4-fluorophenyl)-3-[1-[2-[3-(2-propyl)-2-imidazolidinon-1-yl]ethyl]-4-piperidyl]-1H-indole], the values for the ED50 on 5-HT2 (setting [2]) and at 5-HT2 (setting [3]) were 0.06 µmol/kg and 0.11 µmol/kg, respectively. The IC50 on dopamine D-2 receptors was 130 nM; in test [1], 1.5 nM.
As to `OCCN1CCN(c2cn(-c3ccc(F)cc3)c3ccc(C(F)(F)F)cc23)CC1` [Lu 21-152, 1-(4-fluorophenyl)-3-[4-(2-hydroxyethyl)-1-piperazinyl]-5-trifluoromethyl-1H-indole, reference compound], the “Quipazine inhibition ED50, 2h (sc)” value on 5-HT2 (s.c., 2 h before quipazine) was 0.02 µmol/kg. In addition, the IC50 at dopamine D-2 receptors was 2.6 nM; in test [1], 1.4 nM.
Regarding `Cc1ccc2c(C3CCN(CCN4CCN(C(C)C)C4=O)CC3)cn(-c3ccc(F)cc3)c2c1` [Compound 5a, 1-(4-fluorophenyl)-6-methyl-3-[1-[2-[3-(2-propyl)-2-imidazolidinon-1-yl]ethyl]-4-piperidyl]-1H-indole], the ED50 on 5-HT2 (setting [2]) is 0.11 µmol/kg; on 5-HT2 (setting [3]), 0.04 µmol/kg. The IC50 amounted to 190 nM at dopamine D-2 receptors and 1.6 nM in test [1].
In the case of `Cc1ccc2c(C3CCN(CCN4CCNC4=O)CC3)cn(-c3ccc(F)cc3)c2c1` [Compound 4g, 1-(4-fluorophenyl)-3-[1-[2-(2-imidazolidinon-1-yl)ethyl]-4-piperidyl]-6-methyl-1H-indole], the ED50 is 0.04 µmol/kg on 5-HT2 (setting [2]) and 0.02 µmol/kg at 5-HT2 (setting [3]). In addition, the IC50 was found to be 270 nM on dopamine D-2 receptors and 0.8 nM in test [1].
